Values of other authors as cited in patent publication US20210213132A1, “FORMULATIONS OF SN-38 WITH POLY(AMINO ACID) BLOCK POLYMERS” (Tyndall Formulation Services, LLC, priority 2020, published 2021).
Where two headings read alike, the source gives them in different places.

Experiments:
[1] = test system: metastatic colorectal cancer patients; details: patients treated with irinotecan
[2] = test system: carboxylesterases, specifically CES1 and CES2
[3] = target: T1, topoisomerase I (Homo sapiens, UniProt P11387); details: SN-38 versus irinotecan
T1 sequence (P11387 1-765): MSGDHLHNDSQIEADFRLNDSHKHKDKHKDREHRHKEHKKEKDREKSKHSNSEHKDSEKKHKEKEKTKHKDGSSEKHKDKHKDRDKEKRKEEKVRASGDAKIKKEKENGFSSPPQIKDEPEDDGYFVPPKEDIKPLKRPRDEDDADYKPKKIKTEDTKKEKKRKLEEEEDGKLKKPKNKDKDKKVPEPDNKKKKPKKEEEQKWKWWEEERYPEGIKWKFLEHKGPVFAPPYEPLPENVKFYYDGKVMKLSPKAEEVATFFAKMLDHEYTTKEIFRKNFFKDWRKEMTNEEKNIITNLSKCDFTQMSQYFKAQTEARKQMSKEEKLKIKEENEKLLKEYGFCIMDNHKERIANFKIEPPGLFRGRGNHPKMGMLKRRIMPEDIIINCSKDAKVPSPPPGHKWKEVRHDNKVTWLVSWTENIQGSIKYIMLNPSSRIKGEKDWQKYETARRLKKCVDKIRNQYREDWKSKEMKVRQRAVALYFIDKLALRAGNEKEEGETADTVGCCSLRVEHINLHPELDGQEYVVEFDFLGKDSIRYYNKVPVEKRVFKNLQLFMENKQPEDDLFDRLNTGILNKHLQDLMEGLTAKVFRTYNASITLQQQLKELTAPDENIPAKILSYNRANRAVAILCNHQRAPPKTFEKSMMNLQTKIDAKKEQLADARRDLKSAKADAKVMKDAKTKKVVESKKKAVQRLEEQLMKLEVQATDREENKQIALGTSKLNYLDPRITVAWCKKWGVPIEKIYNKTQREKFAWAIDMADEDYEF

Percentage of patients experiencing asthenia ([1]; UGT1A1 *1/*1 genotype) | Percentage of patients experiencing diarrhea ([1]; UGT1A1 *1/*1 genotype) | Percentage of patients experiencing neutropenia ([1]; UGT1A1 *1/*1 genotype) | Percentage of patients experiencing asthenia ([1]; UGT1A1 *1/*28 genotype) | Percentage of patients experiencing diarrhea ([1]; UGT1A1 *1/*28 genotype) | Percentage of patients experiencing neutropenia ([1]; UGT1A1 *1/*28 genotype) | Percentage of patients experiencing asthenia ([1]; UGT1A1 *28/*28 genotype) | Percentage of patients experiencing diarrhea ([1]; UGT1A1 *28/*28 genotype) | Percentage of patients experiencing neutropenia ([1]; UGT1A1 *28/*28 genotype) | Structure (SMILES) | Affinity of the carboxylesterases for irinotecan [2] | Solubility in aqueous media | Potency relative to irinotecan [3]
25% | 17% | 15% | 38% | 33% | 27% | 70% | 70% | 40% | CCc1c2c(nc3ccc(OC(=O)N4CCC(N5CCCCC5)CC4)cc13)-c1cc3c(c(=O)n1C2)COC(=O)[C@]3(O)CC [Irinotecan] | low |  | 
 |  |  |  |  |  |  |  |  | CCc1c2c(nc3ccc(O)cc13)-c1cc3c(c(=O)n1C2)COC(=O)[C@]3(O)CC [SN-38] |  | extremely insoluble | 100 to 1000 fold
